Consider 15 molecules from PubChem BioAssay (NCI).

What all share (assay): DTP human tumour cell line panel, 48 h
For assay [1], the system named is TK-10 renal.
The subject of assay [2] is UO-31 renal.
For assay [3], the system named is NCI-H522 lung.
Assay [4] has as its system OVCAR-4 ovarian.
The test system of assay [5] is SW-620 colon.
The subject of assay [6] is SNB-19 CNS.
Assay [7] has as its system OVCAR-5 ovarian.
In assay [8] the test system is NCI-H23 lung.

SMILES strings stand for the structures.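 Assay format: 96-well plates, 48-hour exposure. GI50 = concentration required for 50% inhibition of growth. TGI is the concentration that stops growth completely.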

One may read the TGI as the concentration giving total growth inhibition. Lower therefore signals more potent growth arrest. For the molecule `CNC(=O)C1CCc2nnc(-c3ccccc3)n21` (stereo not drawn), the TGI in assay [1], in assay [2], in assay [3], in assay [4], in assay [5] and in assay [6] was over 100 µM each time.

Consider `COc1cc(C(=O)CBr)c(OC)cc1C`, for which the total growth inhibition concentration (TGI) in assay [1], in assay [2], in assay [3], in assay [7], in assay [5] and in assay [8] was over 100 µM throughout. The same molecule gave a TGI in assay [6] of over 100 µM.

For orientation: GI50 means the concentration that inhibits growth by half. On to `N#CC(C#N)=C1Nc2ccccc2S1`, for which the GI50 was 29.2 µM in assay [1]; 39.1 µM in assay [2]; 32.4 µM in assay [3]; 87 µM in assay [4]; 40.1 µM in assay [5]; 22.4 µM in assay [8]. Also, in assay [6], the GI50 is 38.2 µM. Besides, the TGI is 82.1 µM in assay [1]; over 100 µM in assay [2]; over 100 µM in assay [3]; over 100 µM in assay [4]; over 100 µM in assay [5]; 45.9 µM in assay [8]. In assay [6], the TGI was over 100 µM.

Regarding `O=S(=O)(NC1=NCCN1C(=S)SN1CCn2c1nsc2=S)c1cccc(Cl)c1`, the GI50 in assay [1] was 11.5 µM; in assay [2] it was 14.4 µM; in assay [3] it was 5.58 µM; in assay [4], 22.2 µM; in assay [7] it was 19.7 µM; in assay [5] it was 22.9 µM. For the same molecule, in assay [6], the GI50 was 19.1 µM. Also, the total growth inhibition concentration (TGI) was 28.5 µM in assay [1]; 28.6 µM in assay [2]; 18.4 µM in assay [3]; 54.6 µM in assay [4]; 39.2 µM in assay [7]; over 100 µM in assay [5]. Besides, the TGI in assay [6] was 44.4 µM.

In the case of `CC(C)(C)c1cc(CCC(=O)Nc2ccc(Cl)cc2)nc(NC#N)n1`, the TGI in assay [1], in assay [2], in assay [4], in assay [7], in assay [5] and in assay [8] was over 100 µM each time. In addition, the total growth inhibition concentration (TGI) in assay [6] was over 100 µM.

For the molecule `O=C(Nc1ccc(-c2nc(N3CCOCC3)c3cccn3n2)cc1)Nc1cccnc1`, the GI50 in assay [2] is 0.0619 µM; in assay [3], 0.125 µM; in assay [4], 0.118 µM; in assay [7] it was 0.071 µM; in assay [5], 0.0524 µM; in assay [8], 0.269 µM. Also, the total growth inhibition concentration (TGI) in assay [2] is 0.546 µM; in assay [3], over 100 µM; in assay [4] it was 1.27 µM; in assay [7], over 100 µM; in assay [5], over 100 µM; in assay [8] it was over 100 µM.

`CN(C)CCNC(=O)c1cccc2ccc(-c3ccncc3)nc12`: the TGI in assay [1] is 5.57 µM; in assay [2], 5.37 µM; in assay [4], 15 µM; in assay [7], 5.63 µM; in assay [5] it was 18.1 µM; in assay [8], 5.31 µM. Also, the concentration for total growth inhibition (TGI) in assay [6] stood at 9.5 µM.

In the case of `CC(SC(=S)N1CCOCC1)c1cc2oc(=O)n(C)c2cc1Cl` (stereo not drawn), the TGI in assay [1] is over 100 µM; in assay [2], over 100 µM; in assay [4] it was over 100 µM; in assay [7], over 100 µM; in assay [5], over 10 µM; in assay [8], over 100 µM. In addition, the TGI in assay [6] is over 100 µM.

Take `CCCC1N2CCCCC2[C@@H]2c3[nH]c4ccccc4c3CCN12` (stereo partly drawn): the TGI in assay [2], in assay [4], in assay [7], in assay [5], in assay [8] and in assay [6] was over 100 µM in each case.

Take `CCCCCCCC(=O)OCC/C=C/C1OC1C1OC(=O)/C=C\C=C\c2nc(oc2C)/C=C(/C)CCC2OC2C1OC(=O)NC(C)=O` (stereo not drawn): the GI50 was 0.0391 µM in assay [1]; 0.0192 µM in assay [3]; 0.0766 µM in assay [4]; 0.0193 µM in assay [7]; 0.0393 µM in assay [5]; 0.023 µM in assay [8]. In addition, the 50% growth inhibitory concentration (GI50) in assay [6] is 0.0605 µM. For the same molecule, the TGI worked out at 0.232 µM in assay [1]; 0.0755 µM in assay [3]; 2.21 µM in assay [4]; 0.104 µM in assay [7]; 1.07 µM in assay [5]; 0.108 µM in assay [8]. In assay [6], this molecule returned a TGI of 1.16 µM.

Turning to `C/C(CC(=O)Nc1cc(C)ccc1C)=N\NC(=O)c1ccncc1`, the TGI in assay [1], in assay [2], in assay [3], in assay [7], in assay [5] and in assay [8] was over 100 µM throughout.

In the case of `COc1ccc(NC(=O)CC(=O)N/N=C/c2ccc(N(CCC#N)S(C)(=O)=O)cc2)cc1`, the TGI in assay [1], in assay [2], in assay [3], in assay [4], in assay [7] and in assay [5] was over 100 µM each time. The same molecule displayed a concentration for total growth inhibition (TGI) in assay [8] of over 100 µM.

On to `NC(=O)NS(=O)(=O)c1ccc(N2N=C(C(F)(F)F)CC2c2cc(C(F)(F)F)cc(C(F)(F)F)c2)cc1` (stereo not drawn), for which the GI50 in assay [1] is 9.25 µM; in assay [2], 0.0862 µM; in assay [4] it was 2.9 µM; in assay [7], 13.7 µM; in assay [5] it was 4.1 µM; in assay [8], 5.32 µM. Moreover, the GI50 in assay [6] was 8.03 µM. For the same molecule, the TGI was 24.8 µM in assay [1]; 13.2 µM in assay [2]; 12.8 µM in assay [4]; 29.8 µM in assay [7]; 15.7 µM in assay [5]; 19.2 µM in assay [8]. Also, the concentration for total growth inhibition (TGI) in assay [6] was 22.4 µM.

With `COc1cc(Nc2nc3ccccc3nc2-c2cccs2)cc(OC)c1OC`, the TGI in assay [1] was over 100 µM; in assay [2], over 10 µM; in assay [7], over 100 µM; in assay [5], over 100 µM; in assay [8], over 100 µM; in assay [6] it was over 100 µM.

For `N#CSC1CCCCNC1=O` (stereo not drawn), the total growth inhibition concentration (TGI) stood at 30.7 µM in assay [1]; 31.1 µM in assay [2]; 21.3 µM in assay [3]; 13.2 µM in assay [7]; 24.4 µM in assay [8]; 30.2 µM in assay [6].
